{"source": "patent US6723302B1", "about": "“Model for cell migration and use thereof” (The Research Foundation of State University of New York, priority 1996, dated 2004)", "molecules": {"B1": {"name": "PDGF-BB: Recombinant platelet-derived growth factor from ZymoGenetics (protein, UniProt P01127 82-190, looked up)", "Platelet-derived growth …": "SLGSLTIAEPAMIAECKTRTEVFEISRRLIDRTNANFLVWPPCVEVQRCSGCCNNRNVQCRPTQVQLRPVQVRKIEIVRKKPIFKKATVTLEDHLACKCETVAAARPVT"}}, "key": {"[1]": {"tested_on": "human adult dermal fibroblasts", "assay": "Three-dimensional transmigration model (collagen gel into fibrin gel)", "type": "cell-based", "conditions": "for inhibition of transmigration by peptide added to the fibrin gel: transmigration stimulated by PR or PDGF-BB", "protocol": "(§1) Primary cultures of human adult dermal fibroblasts were cultured in Dulbecco's modified Eagle's medium (DMEM, Life Technologies) supplemented with 100 U/ml penicillin and 100 μg/ml streptomycin, 42 mmol/l sodium bicarbonate and 10% fetal bovine serum (FBS, Atlanta Biologicals, Norcross, Ga.) at 37° C. and 5% CO2/95% air in a humidified atmosphere. The cells were used between passages 4 and 12.\n(§2) Fibroblast cultures at 80% confluence were harvested by treatment with 0.05% trypsin/0.02% EDTA (ethylenediaminetetraacetic acid). Trypsin was inactivated by addition of soy bean trypsin inhibitor in PBS containing 0.2% BSA. The cells were washed twice with DMEM+10% FBS and resuspended at a concentration of 1×10^6 cells/ml. The fibroblasts were mixed with DMEM (5×), 10% FBS and neutralized collagen (Vitrogen 100, Celtrix Labs., Santa Clara, Calif.). In some experiments, FBS was replaced by 30 ng/ml PDGF-BB and 2% BSA. 0.6 ml aliquots of the cell mixture were added to the wells of a 24-well tissue culture plate, precoated with 2% BSA, and the collagen was allowed to polymerize at 37° C. The final concentration of collagen was 1.8 mg/ml and each gel contained 6×10^4 cells. After two hours incubation, the gels were gently detached from the plastic surface to allow contraction, 0.5 ml DMEM+10% FBS was added, and the gels were incubated overnight at 37° C. in 5% CO2.\nFibrinogen was mixed with DMEM (5×) and 0.5 U/ml thrombin (New York Blood Center, New York, N.Y.) so that the final concentration of fibrinogen was 300 μg/ml. Aliquots of 450 μl were added to the wells of a 24-well plate, and after a 2 hour incubation at 37° C. in 5% CO2, the polymerized gels were dried overnight at room temperature under sterile conditions.\nDried fibrin fibril-coated dishes were washed once with PBS and contracted collagen gels were placed on the surface. Fibrinogen, at a final concentration of 300 μg/ml, was mixed with DMEM (5×) and 1.0 U/ml thrombin. When needed, other supplements, such as growth factors, were added to the mixture. The collagen gels were surrounded with the fibrinogen solution so that the fibrin gel was level with the collagen gel (FIG. 1)\nThe number of migrated cells was evaluated under a Nikon inverted phase microscope by counting identifiable cell nuclei located outside of the contracted collagen gel, either on the fibrin fibril substrate (two-dimensional model) or within the fibrin gel (three-dimensional model). Each condition was assayed in triplicate and experiments were repeated at least three times."}, "[2]": {"tested_on": "human adult dermal fibroblasts", "assay": "Two-dimensional outmigration model (collagen gel onto dried fibrin fibrils)", "type": "cell-based", "conditions": "collagen gel surrounded with liquid medium instead of fibrin gel", "protocol": "as §1\nas §2, with “The final concentration of collagen was 1.8 mg/ml and each gel contained 6×10^4 cells. After two hours incubation, the gels were gently detached from the plastic surface to allow contraction, 0.5 ml DMEM+10% FBS was added, and the gels were incubated overnight at 37° C. in 5% CO2.” left out\nThe number of migrated cells was evaluated under a Nikon inverted phase microscope by counting identifiable cell nuclei located outside of the contracted collagen gel, either on the fibrin fibril substrate (two-dimensional model) or within the fibrin gel (three-dimensional model). […]"}}, "data": [{"molecule": "NCCCCCC(=O)O", "note": "[ε-ACA, ε-Amino-n-Caproic acid]", "values": [{"measurement": "inhibition of transmigration induced by PDGF-BB (protease inhibitors)", "setting": "[1]; in words", "result": "inhibited"}, {"measurement": "reduction of invasion of the fibrin gel", "setting": "[1]; transmigration induced by PDGF-BB, 500 μg/ml ε-ACA", "result": "about 80%"}, {"measurement": "inhibition of outmigration onto dried fibrin fibrils induced by PDGF-BB", "setting": "[2]", "result": "not inhibited"}]}, {"molecule": "GRGESP [control-peptide]", "values": [{"measurement": "inhibition of transmigration by peptide added to the fibrin gel", "setting": "[1]", "result": "not"}]}, {"molecule": "GRGDSP [synthetic RGD peptide]", "values": [{"measurement": "inhibition of transmigration by peptide added to the fibrin gel", "setting": "[1]", "result": "inhibited"}]}, {"molecule": "B1", "values": [{"measurement": "induction of transmigration of fibroblasts from the collagen gel into the fibrin gel", "setting": "[1]; counted after one day", "result": "could be induced"}]}]}
